Assay results as given in article PMC8058344, “ARIH1 signaling promotes anti-tumor immunity by targeting PD-L1 for proteasomal degradation” (Nature Communications, 2021).

Experiments:
CDK6 = CDK6 (Homo sapiens, UniProt Q00534); experiment: In vitro kinase specificity profiling; format: biochemical
CDK4 = CDK4 (Homo sapiens, UniProt P11802); experiment: In vitro kinase specificity profiling; format: biochemical
4T1 tumor xenograft = 4T1 tumor xenograft model with ES-072 and/or anti-CTLA4; format: in vivo, BALB/c mice
Procedure: Fig. 6 ARIH1 promotes anti-tumor immunity via PD-L1 degradation. a Immunoblot of PD-L1 and ARIH1 (HA) in H1975 cells transfected with HA-ARIH1 (WT or Y392C); HA-tagged empty vector (HA-EV) was transfected as a negative control. b Co-IP analysis for the interaction of K48-ubiquitin, ARIH1 (HA), and PD-L1 in HEK293T cells transfected with Flag-PD-L1 and HA-ARIH1 (WT or Y392C) in the presence of 10 μM MG132 for 6 h. c 4T1 cells were infected with an empty vector (CTRL) or two different ARIH1-overexpressing lentiviral preparations (OE#1 and OE#2). ARIH1 and PD-L1 levels were determined by immunoblotting. d–f Tumor growth (d, e) of CTRL (n = 10) and ARIH1-OE cells (n = 11) in BALB/c mice and final tumor weights (f). […]
For xenograft model with 4T1 cells and combination therapy with ES-072 and anti-CTLA4, 5 × 10^5 4T1 cells suspended in 50 μL PBS and Matrigel (1 : 1 v/v) were injected into the fourth breast fat pad. On days 3 after injection, tumor size was measured and calculated by using the formula 1/2 × length × width^2. […]
Excised tumors were digested in collagenase/hyaluronidase and DNase at 37 °C for 45 min to make cell suspension with a 45 μm filter (BD Bioscience). […] Data acquisition was performed using flow cytometry (Beckman Coulter Cytoflex) and data were analyzed using CytExpert V2.3 software. […]

CDK6, sequence (Q00534 whole entry, species assumed): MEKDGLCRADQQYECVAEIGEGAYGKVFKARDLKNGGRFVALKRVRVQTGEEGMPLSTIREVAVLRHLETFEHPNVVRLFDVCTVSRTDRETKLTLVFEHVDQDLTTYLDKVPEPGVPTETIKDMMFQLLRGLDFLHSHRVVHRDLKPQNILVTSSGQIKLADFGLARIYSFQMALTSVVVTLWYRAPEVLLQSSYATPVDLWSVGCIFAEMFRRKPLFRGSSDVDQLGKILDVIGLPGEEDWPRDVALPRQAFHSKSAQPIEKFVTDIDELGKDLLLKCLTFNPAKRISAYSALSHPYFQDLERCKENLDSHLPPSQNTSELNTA
CDK6, sequence (P30281 whole entry partner, species assumed): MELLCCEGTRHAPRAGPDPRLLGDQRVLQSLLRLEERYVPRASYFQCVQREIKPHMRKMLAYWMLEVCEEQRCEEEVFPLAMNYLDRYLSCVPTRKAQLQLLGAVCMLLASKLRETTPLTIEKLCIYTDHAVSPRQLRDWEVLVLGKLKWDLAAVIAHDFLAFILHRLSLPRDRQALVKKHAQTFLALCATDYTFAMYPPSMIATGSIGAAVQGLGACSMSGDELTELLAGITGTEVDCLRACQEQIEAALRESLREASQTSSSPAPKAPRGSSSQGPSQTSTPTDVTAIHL
CDK4, sequence (P11802 whole entry, species assumed): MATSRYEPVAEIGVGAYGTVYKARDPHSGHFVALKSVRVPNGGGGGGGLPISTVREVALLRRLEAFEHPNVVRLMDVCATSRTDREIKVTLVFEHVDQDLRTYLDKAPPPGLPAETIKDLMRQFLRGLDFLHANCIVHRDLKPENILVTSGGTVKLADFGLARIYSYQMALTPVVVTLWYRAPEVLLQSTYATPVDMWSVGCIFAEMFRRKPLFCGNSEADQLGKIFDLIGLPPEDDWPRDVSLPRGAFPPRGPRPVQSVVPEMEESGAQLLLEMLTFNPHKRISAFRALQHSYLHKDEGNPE
CDK4, sequence (P30281 whole entry partner, species assumed): as the sequence (P30281 whole entry partner, species assumed) above

IC50 (CDK6): > 10 µM | IC50 (CDK4): > 10 µM
SMILES: C=CC(=O)Nc1cccc(Nc2nc(Nc3ccc(N4CCN(C)CC4)nc3OC)ncc2C(F)(F)F)c1 [ES-072]
tumor growth (4T1 tumor xenograft; 4T1 cells in BALB/c mice, ES-072 60 mg/kg i.g. daily, anti-CTLA4 100 μg i.p. day 7, 10, 13): significantly decreased | PD-L1 levels in tumor lysates (4T1 tumor xenograft; 4T1 tumors, western blotting): decreased
